The values that follow come from article PMC9866541, “Flavonoid Derivatives as New Potent Inhibitors of Cysteine Proteases: An Important Step toward the Design of New Compounds for the Treatment of Leishmaniasis” (Microorganisms, 2023).

Structures are written as SMILES. Read-outs that look alike come from different tables or passages of the source. Bounds are passed on as bounds.

The target in data set [1] is T1, rCPB2.8 (Leishmania mexicana, UniProt P36400).
T1 construct: recombinant enzymes (r) lacking the C-terminal region
Kind of data set: Determination of IC50 on rCPB2.8 (Z-FR-AMC). Format: biochemical. The method, then:
Cysteine proteases rCPB2.8, rCPB3, and rH84Y were assayed in 100 mM sodium acetate buffer containing 5 mM EDTA, 100 mM NaCl, 0.01% Triton X-100, and 20% glycerol, at pH 5.5. The enzymes were pre-incubated in the presence of 5 mM DTT for 5 min at 37 °C in a 1 mL final volume with constant stirring. Enzyme activities were monitored using fluorogenic probe Z-FR-AMC (9.25 µM final concentration), and the fluorescence was monitored by spectrofluorometry using fluorometer F2700 (Hitachi, Tokyo, Japan) set to λEx = 360 nm and λEm = 480 nm. The IC50 evaluation was performed using a progressive increase in the concentration of the compounds; the IC50 values were calculated using nonlinear regression, and the data were analysed by Grafit 5.0.13 software using Equation (1). (1) y=100%/1+(x/IC50)^S.

Data set [2] has as its system Promastigote forms of L. amazonensis. The experiment in a line: Antipromastigote assay (MTT). The conditions noted are these: for IC50: Leishmania amazonensis, 72 h, read-out: Promastigote IC50; for SI (selectivity index): GL50 in NIH/3T3 cells / IC50 in extracellular promastigotes. Format: cell-based, Leishmania amazonensis. The method, then: A standard strain of Leishmania (Leishmania amazonensis) (IFLA/BR/1967/PH8) was used for the evaluation of in vitro antileishmanial activity. The promastigote forms were grown in Schneider’s insect medium (Sigma-Aldrich®, SP/Brazil) supplemented with 20% foetal bovine serum (Sigma-Aldrich®, SP/Brazil), 10,000 U/mL penicillin, and 10 mg/mL streptomycin (Sigma-Aldrich®, SP/Brazil).
Promastigote forms of L. amazonensis in the log growth phase (10^e6 parasites/mL) were added to 96-well plates and incubated in sextuplicate with the test samples (0.25–10.0 µg/mL). The microplates were incubated at 26 °C for 72 h. Cell viability was assessed by adding 5 mg/mL of MTT ([3-(4,5-dimethylthiazol-2-yl)-2,5-diphenyltetrazolium bromide] (Sigma-Aldrich® SP/Brazil). Results were expressed as the half-maximal inhibitory concentration (IC50) calculated by a nonlinear dose–response regression curve using the statistical program GraphPad PRISM 5.0. Pentamidine (Sigma-Aldrich ® SP/Brazil; 0.25–10 µg/mL) was used as a positive control, and pure Schneider culture medium was used as a negative control.

Data set [3] addresses T1, rCPB2.8. Kind of data set: Screening of inhibitory activity on rCPB2.8 (Z-FR-MCA hydrolysis). The format is biochemical. The note with it: for inhibition at 5 µM / inhibition at 1 µM: read-out: Inhibition of rCPB2.8 enzymatic activity. The method, then: The screening assays for the inhibitory activity of the compounds in the rCPB2.8, rCPB3, and rH84Y enzymes were performed using 100 mM sodium acetate buffer containing 5 mM EDTA, 100 mM NaCl, 0.01% Triton X-100, and 20% glycerol, at pH 5.5. Enzyme aliquots were pre-incubated with 5 mM DTT for 5 min at 37 °C. After checking the initial rate of the reaction corresponding to the control, the enzymatic rate was measured at two concentrations of compounds, 1 µM and 5 µM. Enzyme activity was monitored by hydrolysis of the substrate Z-FR-MCA by measuring the fluorescence at λEx = 360 nm and λEm = 480 nm on a Hitachi F2700 spectrofluorometer, obtaining the rate values in UAF/min (arbitrary fluorescence units by minute).

In the next data set the test system is NIH/3T3 fibroblasts. Kind of data set: Cytotoxicity on mammalian cells (sulphorhodamine B). Format: cell-based. The conditions noted are these: for NIH/3T3 Cells GL50: 48 h, concentration that inhibited cell growth by 50%. Here is the method: The cytotoxic effect of the test samples was evaluated on NIH/3T3 fibroblasts, obtained from the Rio de Janeiro Cell Bank (Brazil). Cells were seeded in 96-well plates ([…]). After 24 h of fixation, cells were incubated for 48 h with test samples at 0.25–250 µg/mL, in triplicate. […] Doxorubicin (0.025–25 µg/mL was used as a positive control. Cells were fixed by adding 20% trichloroacetic acid and were subsequently stained with sulphorhodamine B (0.1%) diluted in acetic acid after 48 h of exposure. Absorbance values were read on the PT-READER microplate instrument (Thermoplate®), and growth percentages were calculated according to procedures in the literature. Cytotoxicity activity was expressed as the concentration of drug that inhibited cell growth by 50% (GL50), and growth was determined by nonlinear regression using Origin 6.0 software (OriginLab). The statistical significance was analysed using an unpaired Student’s t-test or a one-way analysis of variance. A p-value < 0.05 was considered statistically relevant. In addition, the SI was calculated using the ratio between cytotoxicity in NHI-3T3 cells (GL50) and activity in the parasite forms (IC50).

Data set [4] concerns rH84Y. Format: biochemical, Leishmania mexicana. The conditions noted are these: ratio of IC50 values.
A further data set has as its target rCPB3 (Leishmania mexicana, UniProt P36400, D186N/D189S/N185D, form not given). Kind of data set: Enzyme kinetics and mechanism of inhibition of rCPB3. On mechanism: key: NCPC: non-competitive inhibition with positive cooperativity; SLNC: simple linear non-competitive inhibition. The note with it: for α: factor of formation of the ESI complex. Format: biochemical. The method, then: (§1) Studies of cysteine proteases rCPB2.8, rCPB3, and rH84Y inhibition kinetics were performed in different concentrations of Z-FR-AMC in the presence and absence of compounds using 100 mM sodium acetate buffer containing 5 mM EDTA, 100 mM NaCl, 0.01% Triton X-100, and 20% glycerol, at pH 5.5. Aliquots of the enzymes were pre-incubated with 5 mM DTT for 5 min at 37 °C. For every kinetic measurement, the compounds were pre-incubated with each enzyme for 10 min before adding the substrate. All kinetic assays were performed in duplicate. Inhibition constants were determined using different equations, depending on the inhibition mechanism. The assumed KM values of rCPB2.8, rCPB3, and rH84Y for Z-FR-AMC were 3.23 µM, 2.99 µM, and 2.80 µM, respectively. The data of the activity rate and substrate concentration generated rectangular hyperbolic profiles that were linearised using the Lineweaver–Burk double-reciprocal plot. The replot profiles of the slope vs. inhibitor and intercept vs. inhibitor provided Ki and αKi parameters, respectively. If the replots present a parabolic profile, the system involves the participation of a second molecule of the compound, which can bind the enzyme complexed to the first compound (EI), forming IEI, and bind to the ESI complex, forming IESI. Linearisation is required, generating the 1/Kslope vs. inhibitor and 1/Kintercept vs. inhibitor replots, according to Equations (2) and (3). (2) 1/Kslope=1/Ki+[I]/βKi2, (3) 1/Kintercept=1/αKi+[I]/αγKi2, where Ki is the inhibitory constant, [I] is the concentration of inhibitor, α is the factor of formation of the ESI complex (enzyme–substrate–inhibitor complex), β is the factor of formation of the IEI complex (inhibitor–enzyme–inhibitor complex), and γ is the factor of formation of the IESI complex (inhibitor–enzyme–substrate–inhibitor complex) according to the general mechanism (Figure 8). Furthermore, β and γ measure the cooperativity between the binding of the first and second inhibitor molecules to form IEI and IESI, respectively.

The target of data set [5] is rH84Y (Leishmania mexicana, UniProt P36400, D186N/D189S/H209Y/N185D, form not given). Kind of data set: Enzyme kinetics and mechanism of inhibition of rH84Y. On mechanism: key: NCPC: non-competitive inhibition with positive cooperativity; SLNC: simple linear non-competitive inhibition. The format is biochemical. The note with it: for α: factor of formation of the ESI complex. The method, then:
as §1

Data set [6] addresses T1, rCPB2.8. The experiment in a line: Enzyme kinetics and mechanism of inhibition of rCPB2.8. On mechanism: key: NCPC: non-competitive inhibition with positive cooperativity; SLNC: simple linear non-competitive inhibition. The format is biochemical. The note with it: for α: factor of formation of the ESI complex; for β: factor of formation of the IEI complex; for γ: factor of formation of the IESI complex. The method, then:
as §1

Where [7] appears, read: L. amazonensis promastigotes, 26 °C, MTT, highest concentration tested 10 µg/mL.
The mark [8] stands for this setting: factor of formation of the IEI complex.
[9] abbreviates: factor of formation of the IESI complex.

Chain of rCPB3 (P36400 126-343 D186N/D189S/N185D): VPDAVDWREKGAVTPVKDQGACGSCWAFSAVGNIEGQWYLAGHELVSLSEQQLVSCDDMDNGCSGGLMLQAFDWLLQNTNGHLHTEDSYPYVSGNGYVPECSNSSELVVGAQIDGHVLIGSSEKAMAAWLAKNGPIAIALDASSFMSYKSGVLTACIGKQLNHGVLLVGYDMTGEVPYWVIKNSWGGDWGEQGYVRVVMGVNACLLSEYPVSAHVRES
Chain of rH84Y (Leishmania mexicana, UniProt P36400, D186N/D189S/H209Y/N185D, form not given) (P36400 126-343 D186N/D189S/H209Y/N185D): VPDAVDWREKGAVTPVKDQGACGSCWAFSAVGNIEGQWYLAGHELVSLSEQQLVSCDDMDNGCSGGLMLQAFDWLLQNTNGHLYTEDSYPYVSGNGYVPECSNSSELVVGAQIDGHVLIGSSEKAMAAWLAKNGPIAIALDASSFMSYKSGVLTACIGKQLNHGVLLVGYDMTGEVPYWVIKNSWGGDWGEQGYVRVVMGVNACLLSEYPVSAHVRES
T1 sequence (P36400 126-343): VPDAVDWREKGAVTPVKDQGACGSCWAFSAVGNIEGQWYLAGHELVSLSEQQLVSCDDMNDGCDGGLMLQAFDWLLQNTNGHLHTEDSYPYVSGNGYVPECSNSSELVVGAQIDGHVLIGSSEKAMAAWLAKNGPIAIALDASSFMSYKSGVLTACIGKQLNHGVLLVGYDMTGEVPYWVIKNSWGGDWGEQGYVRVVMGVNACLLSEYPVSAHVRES

Usually IC50 stands for the concentration that gives 50% inhibition. What is called inhibition is the percentage by which the read-out fell short of the control. With `CN(C)c1ccc(/C=C/C(=O)c2ccccc2O)cc1` [Compound 2c, (E)-3-(4-(dimethylamino)phenyl)-1-(2-hydroxyphenyl)prop-2-en-1-one], the IC50 against rCPB2.8 [1] is 11.7 ± 0.38 µM; in data set [2], above 10 µg/mL. Further, the “rCPB2.8 activity (increased to)” value on rCPB2.8 [3] (1 µM compound, activity relative to control) came to 141.71%. In addition, the inhibition at 5 µM at rCPB2.8 [3] was determined as 25.6%. In the data set with NIH/3T3 fibroblasts, the “NIH/3T3 Cells GL50” value is recorded as above 935.21 µM.
Consider `COc1ccc(/C=C/C(=O)c2ccc(Cl)cc2)cc1` [Compound 1a, (E)-1-(4-chlorophenyl)-3-(4-methoxyphenyl)prop-2-en-1-one], for which the half-inhibitory concentration (IC50) on rCPB2.8 [1] was 13.7 ± 0.74 µM; in data set [2], above 10 µg/mL. Moreover, the inhibition at 1 µM at rCPB2.8 [3] worked out at 82%. For the same compound, in the data set on NIH/3T3 fibroblasts, the “NIH/3T3 Cells GL50” value amounted to 294.13 µM.
`CN(C)c1ccc(/C=C/C(=O)c2cc(F)ccc2O)cc1` [Compound 4c, (E)-3-(4-(dimethylamino)phenyl)-1-(5-fluoro-2-hydroxyphenyl)prop-2-en-1-one]: the IC50 against rCPB2.8 [1] worked out at 9.88 ± 0.73 µM; in data set [2] (setting [7]), 0.5 µM. The “SI (selectivity index)” value in data set [2] is above 1752.48. Moreover, in the data set with NIH/3T3 fibroblasts, the “NIH/3T3 Cells GL50” value is recorded as above 876.24 µM. The “Cytotoxicity against mammal cells (in words)” value in the data set on NIH/3T3 fibroblasts (NIH/3T3 cells) is listed as “noncytotoxic”. Further, in the data set with rH84Y [4], the “Times more potent in inhibiting rH84Y compared to rCPB3” value was found to be 8.74 times.
Consider `CN(C)c1ccc(/C=C/C(=O)c2ccc(Cl)cc2)cc1` [Compound 1c, (E)-1-(4-chlorophenyl)-3-(4-(dimethylamino)phenyl)prop-2-en-1-one], for which the IC50 at rCPB2.8 [1] turned out to be 2.75 ± 0.18 µM; in data set [2] (setting [7]) it was 1.14 µM. Further, in data set [2], the “SI (selectivity index)” value is reported as above 767.39. The inhibition at 5 µM at rCPB2.8 [3] came out at 91.6%. Besides, in the data set with NIH/3T3 fibroblasts, the “NIH/3T3 Cells GL50” value is recorded as above 874.83 µM.
In general, Ki refers to the equilibrium dissociation constant of an inhibitor or competing ligand from its target. Read a high Ki as weaker binding. At rCPB2.8 [1], `O=c1c(O)c(-c2ccc3c(c2)OCO3)oc2ccccc12` [Compound f12b, 2-(benzo[d][1, 3]dioxol-5-yl)-3-hydroxy-4H-chromen-4-one] had an IC50 of 5.23 ± 0.32 µM. Moreover, in data set [2] (setting [7]), the IC50 was above 10 µg/mL. On rCPB3, the Mechanism entry is “SLNC”, the αKi stood at 13.7 ± 1.2 µM and the α turned out to be 1. Further, at rCPB2.8 [3], the inhibition at 1 µM amounted to 69.2% and the inhibition at 5 µM came to 77.5%. Besides, on rH84Y [5], the Mechanism entry was “SLNC”, the αKi worked out at 6.06 ± 0.24 µM and the α is on record as 1. Also, the “NIH/3T3 Cells GL50” value in the data set on NIH/3T3 fibroblasts is given as above 885.74 µM. For the same compound, on rCPB2.8 [6], the Mechanism result was “NCPC”, the αKi stood at 24.9 ± 2.3 µM, the α was found to be 0.634 and the β stood at 0.029. At rCPB2.8 [6], this compound yielded a γ of 0.013. On rCPB2.8 [6] (Ki), this compound came in with a Ki of 39.2 ± 4.1 µM. This compound displayed a Ki at rCPB2.8 [6] (βKi) of 1.17 ± 0.12 µM. At rCPB2.8 [6] (γKi), this compound gave a Ki of 0.51 ± 0.09 µM.
`CN(C)c1ccc(/C=C/C(=O)c2cc(Cl)ccc2O)cc1` [Compound 3c, (E)-1-(5-chloro-2-hydroxyphenyl)-3-(4-(dimethylamino)phenyl)prop-2-en-1-one]: the results for the IC50 (at rCPB2.8 [1]; in data set [2] (setting [7])) were 3.97 ± 0.08 µM and above 10 µg/mL, respectively. Further, the “Formation of IEI favoured by binding of the first molecule” value at rCPB3 was “sevenfold”; at rH84Y [5], 20 fold; at rCPB2.8 [6] it was 182 fold. In addition, the entries for the “Formation of IESI favoured by binding of the first molecule” value on rCPB3, at rH84Y [5] and at rCPB2.8 [6] were 20 fold, 28 fold and 87 fold, respectively. Moreover, the Mechanism entry at rCPB3, at rH84Y [5] and at rCPB2.8 [6] was “NCPC” each time. The αKi on rCPB3 is 141 ± 27 µM; on rH84Y [5], 127 ± 20 µM; on rCPB2.8 [6], 147 ± 28 µM. Further, the α at rCPB3 stood at 9.15; at rH84Y [5], 4.31; on rCPB2.8 [6], 1.47. For the same compound, the values for the β at rCPB3 (setting [8]), at rH84Y [5] (setting [8]) and on rCPB2.8 [6] were 0.14, 0.049 and 0.0055, respectively. In addition, the values for the γ on rCPB3 (setting [9]), on rH84Y [5] (setting [9]) and on rCPB2.8 [6] were 0.05, 0.036 and 0.0115, respectively. For the same compound, the “NIH/3T3 Cells GL50” value with NIH/3T3 fibroblasts was above 828.44 µM. In addition, the Ki was 100 ± 18 µM at rCPB2.8 [6] (Ki), 0.55 ± 0.1 µM on rCPB2.8 [6] (βKi) and 1.15 ± 0.21 µM at rCPB2.8 [6] (γKi).
